# In patent US10537563B2, “Methods for treating ocular disease using inhibitors of CSF-1R” (NOVARTIS AG, priority 2016, dated 2020):
# Columns and labels:
# [1] = molecular target: CDC2_cyclinB (Homo sapiens, UniProt P06493); assay: In vitro kinase assay (Table 1); format: biochemical
# [2] = molecular target: Ck2alpha1 (Homo sapiens, UniProt P68400); assay: In vitro kinase assay (Table 1); format: biochemical
# [3] = molecular target: FGFR1 (Homo sapiens, UniProt P11362); assay: In vitro kinase assay (Table 1); format: biochemical
# [4] = molecular target: Fyn (Homo sapiens, UniProt P06241); assay: In vitro kinase assay (Table 1); format: biochemical
# [5] = molecular target: Hck (Homo sapiens, UniProt P08631); assay: In vitro kinase assay (Table 1); format: biochemical
# [6] = molecular target: IGF-1R (Homo sapiens, UniProt P08069); assay: In vitro kinase assay (Table 1); format: biochemical
# [7] = molecular target: PKC_alpha (Homo sapiens, UniProt P17252); assay: In vitro kinase assay (Table 1); format: biochemical
# [8] = molecular target: PKC_epsilon (Homo sapiens, UniProt Q02156); assay: In vitro kinase assay (Table 1); format: biochemical
# [9] = molecular target: RAF1_4_CR (Homo sapiens, UniProt P04049); assay: In vitro kinase assay (Table 1); format: biochemical
# [10] = molecular target: ROS (Homo sapiens, UniProt P08922); assay: In vitro kinase assay (Table 1); format: biochemical
# [11] = molecular target: Src (Homo sapiens, UniProt P12931); assay: In vitro kinase assay (Table 1); format: biochemical
# [12] = molecular target: Syk (Homo sapiens, UniProt P43405); assay: In vitro kinase assay (Table 1); format: biochemical
# [13] = molecular target: T1, Khs1 (h) (Homo sapiens, UniProt Q9Y4K4); assay: Kinase profiling at Invitrogen; format: biochemical
# T1 construct: purchased Invitrogen
# [14] = molecular target: T2, Syk (h) (Homo sapiens, UniProt P43405); assay: Kinase profiling at Invitrogen; format: biochemical
# T2 construct: purchased Invitrogen
# [15] = molecular target: T3, BaF-Tel-FGFR3 (Homo sapiens, UniProt P22607); assay: BaF3 proliferation assay; format: cell-based, murine
# T3 construct: fused on or other part: P41212 (Transcription factor ETV6)
# [16] = molecular target: T4, BaF-Tpr-MET (Homo sapiens, UniProt P08581); assay: BaF3 proliferation assay; format: cell-based, murine
# T4 construct: expressed in transfected cells; host or cells: BaF3 (murine pro-B cell line); the other entry of the earlier key: TPR (P12270, Nucleoprotein TPR)
# [17] = molecular target: BaF-PTC3-RET (Homo sapiens, UniProt P07949); assay: BaF3 proliferation assay; format: cell-based, murine
# [18] = system: BaF-wt; assay: BaF3 proliferation assay; format: cell-based, murine; conditions: Mus musculus
# [19] = molecular target: T5, BAF/Tel-FGFR4-Q4/sACP (Homo sapiens, UniProt P22455); assay: BaF3 proliferation assay; format: cell-based, murine
# T5 construct: fused on or other part: P41212 (Transcription factor ETV6)
# [20] = molecular target: T6, BAF/Tel-MET-3.1/sACP (Homo sapiens, UniProt P08581); assay: BaF3 proliferation assay; format: cell-based, murine
# T6 construct: fused on or other part: P41212 (Transcription factor ETV6)
# [21] = molecular target: T7, BAF/Tel-IGF1R-FL-N.1/sACP (Homo sapiens, UniProt P08069); assay: BaF3 proliferation assay; format: cell-based, murine
# T7 construct: BAF/Tel-IGF1R-FL- N.1/sACP; fused on or other part: P41212 (Transcription factor ETV6)
# [22] = molecular target: T8, BAF/Tel-TYK2-1.3/sACP (Homo sapiens, UniProt P29597); assay: BaF3 proliferation assay; format: cell-based, murine
# T8 construct: fused on or other part: P41212 (Transcription factor ETV6)
# [23] = molecular target: T9, BAF/Tel-Src-3.1/sACP (Homo sapiens, UniProt P12931); assay: BaF3 proliferation assay; format: cell-based, murine
# T9 construct: fused on or other part: P41212 (Transcription factor ETV6)
# [24] = molecular target: T10, BAF/Tel-Lck-2.1/sACP (Homo sapiens, UniProt P06239); assay: BaF3 proliferation assay; format: cell-based, murine
# T10 construct: fused on or other part: P41212 (Transcription factor ETV6)
# [25] = molecular target: T11, BAF/Tel-Lyn-1.2/sACP (Homo sapiens, UniProt P07948); assay: BaF3 proliferation assay; format: cell-based, murine
# T11 construct: fused on or other part: P41212 (Transcription factor ETV6)
# [26] = molecular target: T12, BAF/Tel-BMX-1.2/sACP (Homo sapiens, UniProt P51813); assay: BaF3 proliferation assay; format: cell-based, murine
# T12 construct: fused on or other part: P41212 (Transcription factor ETV6)
# [27] = molecular target: T13, BAF/Tel-ZAP70-1.1/sACP (Homo sapiens, UniProt P43403); assay: BaF3 proliferation assay; format: cell-based, murine
# T13 construct: fused on or other part: P41212 (Transcription factor ETV6)
# [28] = system: MMP-9; assay: MMP-9 production by human macrophages (ELISA); format: cell-based; conditions: low dose (0.1 μM)
# Experimental: (§1) Freshly isolated human PBMCs were used to purify human monocytes by negative selection using an indirect magnetic labeling system. […] Soluble factors such as cytokines (VEGFa, IL-6 etc.) and chemokines (IL-8, MCP-1, MMP9 etc.) in the culture supernatant were measured using commercial ELISA kits. The in vitro survival of human macrophages was measured using a commercially available CellTiter-Glo® system. Most observed results were repeated in multiple donors (n>5).
# [29] = system: cytokine-polarized human macrophages (M1 or M2); assay: Survival of fully differentiated, cytokine-polarized human macrophages; format: cell-based
# Experimental: as §1
# [30] = system: human macrophages; assay: CSF-1 and IL-34 mediated macrophage survival; format: cell-based; conditions: 0.1 to 10 μM; 4 donors
# Experimental: as §1
# A dose range (0 to 100 ng/ml) of CSF-1 or IL-34 was tested and macrophage survival positively correlated with increasing dose of CSF-1 or IL-34 with no difference between the 2 factors observed.
# [31] = system: VEGFa; assay: VEGFa production by human macrophages; format: cell-based; conditions: stimulation with MCSF or IL-34
# Experimental: as §1
# Activated human macrophages are a source of VEGFa. Human macrophages produce VEGFa following stimulation with MCSF or IL-34.
# [32] = system: VEGF; assay: Interaction with VEGF versus CSF-1 receptor signaling; conditions: at concentrations where the signaling of the CSF-1 receptor is strongly or completely inhibited
# T1 sequence (Q9Y4K4 whole entry): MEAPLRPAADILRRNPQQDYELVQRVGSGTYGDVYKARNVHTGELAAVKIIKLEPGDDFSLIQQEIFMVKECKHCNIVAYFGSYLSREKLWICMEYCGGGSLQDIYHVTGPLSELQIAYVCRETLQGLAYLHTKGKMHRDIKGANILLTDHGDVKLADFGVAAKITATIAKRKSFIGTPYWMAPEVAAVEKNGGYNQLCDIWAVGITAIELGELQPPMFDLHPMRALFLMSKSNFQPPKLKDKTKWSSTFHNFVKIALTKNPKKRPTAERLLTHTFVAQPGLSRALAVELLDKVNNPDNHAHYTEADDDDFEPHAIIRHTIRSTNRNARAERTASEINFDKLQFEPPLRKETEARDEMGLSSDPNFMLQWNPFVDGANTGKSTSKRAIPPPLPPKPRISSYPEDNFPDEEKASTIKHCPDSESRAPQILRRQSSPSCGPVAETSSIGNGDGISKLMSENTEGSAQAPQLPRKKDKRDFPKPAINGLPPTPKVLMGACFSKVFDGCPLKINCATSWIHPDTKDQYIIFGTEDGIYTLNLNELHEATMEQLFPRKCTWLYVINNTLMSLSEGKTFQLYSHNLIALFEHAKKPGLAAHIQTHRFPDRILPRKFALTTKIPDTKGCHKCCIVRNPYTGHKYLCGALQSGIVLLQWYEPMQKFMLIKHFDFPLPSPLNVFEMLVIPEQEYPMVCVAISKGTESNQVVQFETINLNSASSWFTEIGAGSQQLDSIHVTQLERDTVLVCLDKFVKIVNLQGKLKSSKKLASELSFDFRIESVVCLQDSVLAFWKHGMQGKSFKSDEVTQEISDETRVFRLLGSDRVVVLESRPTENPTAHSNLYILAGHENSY
# T5 sequence (P22455 467-755 limits assumed, change not shown): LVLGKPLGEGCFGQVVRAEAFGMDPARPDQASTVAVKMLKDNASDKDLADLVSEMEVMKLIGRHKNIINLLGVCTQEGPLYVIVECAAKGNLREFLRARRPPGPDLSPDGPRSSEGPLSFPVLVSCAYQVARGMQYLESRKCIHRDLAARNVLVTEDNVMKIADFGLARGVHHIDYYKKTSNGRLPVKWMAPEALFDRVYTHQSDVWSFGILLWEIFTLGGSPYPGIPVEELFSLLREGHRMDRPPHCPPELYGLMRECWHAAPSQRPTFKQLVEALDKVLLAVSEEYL
# T7 sequence (P08069 999-1274 limits assumed, change not shown): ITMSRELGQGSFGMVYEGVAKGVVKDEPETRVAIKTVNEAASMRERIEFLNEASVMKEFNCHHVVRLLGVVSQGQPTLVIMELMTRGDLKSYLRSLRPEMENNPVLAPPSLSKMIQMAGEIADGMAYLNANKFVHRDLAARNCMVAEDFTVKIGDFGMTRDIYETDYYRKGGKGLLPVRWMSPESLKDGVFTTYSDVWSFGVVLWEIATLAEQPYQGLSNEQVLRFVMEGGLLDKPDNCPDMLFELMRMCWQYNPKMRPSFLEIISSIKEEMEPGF
# T6 sequence (P08581 1078-1345 limits assumed, change not shown): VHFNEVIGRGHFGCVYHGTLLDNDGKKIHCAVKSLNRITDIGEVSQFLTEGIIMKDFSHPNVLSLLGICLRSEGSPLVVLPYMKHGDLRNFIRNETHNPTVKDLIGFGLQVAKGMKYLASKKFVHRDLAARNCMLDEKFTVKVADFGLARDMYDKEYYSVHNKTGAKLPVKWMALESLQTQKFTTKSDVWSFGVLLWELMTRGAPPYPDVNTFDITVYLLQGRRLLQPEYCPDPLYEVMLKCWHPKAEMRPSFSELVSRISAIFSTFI
# T9 sequence (P12931 270-523 limits assumed, change not shown): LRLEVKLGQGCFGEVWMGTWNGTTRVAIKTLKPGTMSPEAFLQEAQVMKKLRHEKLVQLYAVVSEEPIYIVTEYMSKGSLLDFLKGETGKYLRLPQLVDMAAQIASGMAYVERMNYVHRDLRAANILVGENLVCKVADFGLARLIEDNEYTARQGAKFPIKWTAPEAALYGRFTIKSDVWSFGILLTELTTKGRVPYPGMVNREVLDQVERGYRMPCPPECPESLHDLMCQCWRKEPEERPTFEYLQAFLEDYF
# Chain of PKC_epsilon (Q02156 whole entry): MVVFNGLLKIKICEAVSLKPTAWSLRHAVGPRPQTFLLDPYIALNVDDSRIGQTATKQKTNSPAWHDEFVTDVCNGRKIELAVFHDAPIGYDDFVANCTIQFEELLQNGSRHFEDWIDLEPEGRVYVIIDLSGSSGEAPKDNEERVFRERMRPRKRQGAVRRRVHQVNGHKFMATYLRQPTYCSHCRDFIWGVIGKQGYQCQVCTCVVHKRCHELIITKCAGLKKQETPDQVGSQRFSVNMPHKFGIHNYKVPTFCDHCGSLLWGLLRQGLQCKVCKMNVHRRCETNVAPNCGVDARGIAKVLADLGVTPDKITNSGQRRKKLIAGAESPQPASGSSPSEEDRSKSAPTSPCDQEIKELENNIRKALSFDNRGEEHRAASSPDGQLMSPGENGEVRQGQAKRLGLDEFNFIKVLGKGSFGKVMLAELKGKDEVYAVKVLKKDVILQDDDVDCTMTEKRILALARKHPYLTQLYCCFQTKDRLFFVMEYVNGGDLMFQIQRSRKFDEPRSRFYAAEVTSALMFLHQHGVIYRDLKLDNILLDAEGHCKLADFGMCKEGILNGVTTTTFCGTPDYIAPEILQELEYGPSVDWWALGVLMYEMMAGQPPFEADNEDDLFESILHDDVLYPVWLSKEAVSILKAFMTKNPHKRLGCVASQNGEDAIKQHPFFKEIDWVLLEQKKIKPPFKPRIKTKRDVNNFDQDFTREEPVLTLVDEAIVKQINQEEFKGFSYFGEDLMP
# Chain of FGFR1 (P11362 22-822, species assumed): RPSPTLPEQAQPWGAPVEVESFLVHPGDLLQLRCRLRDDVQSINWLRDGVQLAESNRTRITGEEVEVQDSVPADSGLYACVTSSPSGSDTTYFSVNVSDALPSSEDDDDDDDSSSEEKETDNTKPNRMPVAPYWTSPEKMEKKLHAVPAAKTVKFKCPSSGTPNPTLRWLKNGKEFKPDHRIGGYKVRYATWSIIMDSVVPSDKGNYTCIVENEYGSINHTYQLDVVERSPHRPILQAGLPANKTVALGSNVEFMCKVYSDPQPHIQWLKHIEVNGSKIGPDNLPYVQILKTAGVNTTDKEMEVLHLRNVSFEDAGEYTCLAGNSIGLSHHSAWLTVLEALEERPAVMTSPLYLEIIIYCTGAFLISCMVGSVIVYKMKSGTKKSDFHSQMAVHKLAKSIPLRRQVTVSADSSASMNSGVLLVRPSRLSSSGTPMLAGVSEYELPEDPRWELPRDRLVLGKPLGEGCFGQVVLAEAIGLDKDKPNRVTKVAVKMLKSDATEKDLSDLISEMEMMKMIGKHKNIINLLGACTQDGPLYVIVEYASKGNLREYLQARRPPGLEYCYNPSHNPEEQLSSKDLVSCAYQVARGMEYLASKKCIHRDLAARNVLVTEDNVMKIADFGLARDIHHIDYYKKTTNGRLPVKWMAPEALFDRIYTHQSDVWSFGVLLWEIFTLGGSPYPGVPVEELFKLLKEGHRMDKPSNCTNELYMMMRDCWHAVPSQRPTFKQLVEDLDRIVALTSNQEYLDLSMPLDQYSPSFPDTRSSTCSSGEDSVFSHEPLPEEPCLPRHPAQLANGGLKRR
# Chain of RAF1_4_CR (P04049 whole entry): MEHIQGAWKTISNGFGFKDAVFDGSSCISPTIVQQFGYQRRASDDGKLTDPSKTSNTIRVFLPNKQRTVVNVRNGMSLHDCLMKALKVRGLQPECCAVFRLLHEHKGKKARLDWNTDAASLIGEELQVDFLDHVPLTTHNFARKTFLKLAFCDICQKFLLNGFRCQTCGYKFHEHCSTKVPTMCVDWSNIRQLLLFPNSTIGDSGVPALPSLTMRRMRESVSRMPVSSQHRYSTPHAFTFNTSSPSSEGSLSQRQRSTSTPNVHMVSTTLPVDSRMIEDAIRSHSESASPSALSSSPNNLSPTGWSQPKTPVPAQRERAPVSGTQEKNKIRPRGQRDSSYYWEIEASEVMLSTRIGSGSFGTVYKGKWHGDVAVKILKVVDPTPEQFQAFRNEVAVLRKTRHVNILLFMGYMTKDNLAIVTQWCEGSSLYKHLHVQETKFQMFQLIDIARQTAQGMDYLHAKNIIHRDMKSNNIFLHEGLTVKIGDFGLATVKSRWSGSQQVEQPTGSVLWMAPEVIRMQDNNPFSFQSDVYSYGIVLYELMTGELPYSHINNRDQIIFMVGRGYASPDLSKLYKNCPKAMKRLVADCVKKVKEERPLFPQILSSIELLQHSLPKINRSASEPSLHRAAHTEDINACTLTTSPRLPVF
# Chain of CDC2_cyclinB (P06493 whole entry): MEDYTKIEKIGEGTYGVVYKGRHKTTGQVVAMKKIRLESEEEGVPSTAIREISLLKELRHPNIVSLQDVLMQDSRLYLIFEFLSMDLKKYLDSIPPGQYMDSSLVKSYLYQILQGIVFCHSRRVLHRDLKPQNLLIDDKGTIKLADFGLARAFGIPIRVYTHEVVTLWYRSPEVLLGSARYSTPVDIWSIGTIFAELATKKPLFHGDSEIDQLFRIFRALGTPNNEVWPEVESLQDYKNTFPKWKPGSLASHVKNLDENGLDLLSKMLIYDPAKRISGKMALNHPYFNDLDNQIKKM
# Chain of CDC2_cyclinB (P14635 whole entry partner): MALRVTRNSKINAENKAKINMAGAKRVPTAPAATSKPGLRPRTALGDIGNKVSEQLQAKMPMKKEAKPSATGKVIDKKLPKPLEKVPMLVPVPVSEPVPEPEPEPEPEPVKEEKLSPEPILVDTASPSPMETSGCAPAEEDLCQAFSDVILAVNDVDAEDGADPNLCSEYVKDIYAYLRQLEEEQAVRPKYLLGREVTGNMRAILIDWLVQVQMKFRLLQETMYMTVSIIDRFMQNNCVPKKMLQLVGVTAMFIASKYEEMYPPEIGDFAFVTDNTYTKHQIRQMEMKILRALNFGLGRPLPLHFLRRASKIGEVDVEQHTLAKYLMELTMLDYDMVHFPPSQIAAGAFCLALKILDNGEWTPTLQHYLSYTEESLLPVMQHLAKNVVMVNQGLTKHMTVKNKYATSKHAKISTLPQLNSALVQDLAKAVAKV
smiles,measurement,setting,value
CNC(=O)c1cc(Oc2ccc3nc(NC4CCCCC4O)sc3c2)ccn1 (stereo not shown) [Compound (I)],IC50,[1],> 25 µM
same,IC50,[2],> 10 µM
same,IC50,[3],> 25 µM
same,IC50,[4],> 10 µM
same,IC50,[5],> 10 µM
same,IC50,[6],> 10 µM
same,IC50,[7],> 10 µM
same,IC50,[8],> 25 µM
same,IC50,[9],> 25 µM
same,IC50,[10],> 10 µM
same,IC50,[11],> 10 µM
same,IC50,[12],> 10 µM
same,inhibition at 0.5 µM,"[13]; read-out: % inhibition @ 0.5 μM, Khs1 (h)",15%
same,inhibition at 5 µM,"[13]; read-out: % inhibition @ 5 μM, Khs1 (h)",27%
same,inhibition at 20 µM,"[13]; read-out: % inhibition @ 20 μM, Khs1 (h)",52%
same,inhibition at 0.5 µM,"[14]; read-out: % inhibition @ 0.5 μM, Syk (h)",32%
same,inhibition at 5 µM,"[14]; read-out: % inhibition @ 5 μM, Syk (h)",36%
same,inhibition at 20 µM,"[14]; read-out: % inhibition @ 20 μM, Syk (h)",-15%
same,EC50,[15],> 10 µM
same,EC50,[16],> 10 µM
same,EC50,[17],> 10 µM
same,EC50,[18],> 10 µM
same,EC50,[19],> 10 µM
same,EC50,[20],> 10 µM
same,EC50,[21],> 10 µM
same,EC50,[22],> 10 µM
same,EC50,[23],> 10 µM
same,EC50,[24],> 10 µM
same,EC50,[25],> 10 µM
same,EC50,[26],> 10 µM
same,EC50,[27],> 10 µM
same,MMP-9 production by human macrophages,[28],downregulated
same,"survival of fully differentiated, cytokine-polarized human macrophages (M1 or M2)",[29],did not affect
same,CSF-1 mediated macrophage survival,[30],significantly affects
same,IL-34 mediated macrophage survival,[30],significantly affects
same,VEGFa levels of human macrophages,[31],significantly decreased
same,interaction with VEGF,[32],not to interact strongly
